Experimental data taken from ChEMBL document CHEMBL1201862, “PubChem BioAssay data set” (2004).
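Step 1: Grow cells in 96-well plates. Step 2: Expose to compound for 48 hours at 5 concentrations. Step 3: Interpolate endpoints linearly; if unreached, use highest concentration. GI50: concentration for 50% inhibition of growth.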 Active and inactive are the calls of the source. No stated cut-off is given here; in the data, active = GI50 up to about 1.1 µM and inactive = higher.

Experiments:
Experiment in all cases: DTP human tumour cell line panel, 48 h
HOP-92 = system: HOP-92
MCF7 = system: MCF7
UO-31 = system: UO-31
OVCAR-5 = system: OVCAR-5
MDA-MB-231 = system: MDA-MB-231
786-0 = system: 786-0
KM12 = system: KM12
MOLT-4 = system: MOLT-4
ACHN = system: ACHN
NCI-H460 = system: NCI-H460
Hs-578T = system: Hs-578T
SF-268 = system: SF-268
SN12C = system: SN12C
DU-145 = system: DU-145
SK-MEL-2 = system: SK-MEL-2
MDA-N = system: MDA-N
SW-620 = system: SW-620
SF-539 = system: SF-539
HT-29 = system: HT-29
NCI-H23 = system: NCI-H23

Measured: GI50

CCOC(=O)c1nc2cc(C(F)(F)F)ccc2nc1Oc1ccc(C(=O)OC)cc1
inactive: HOP-92 > 100 µM | MCF7 > 100 µM | UO-31 > 100 µM | OVCAR-5 > 100 µM | MDA-MB-231 > 100 µM | 786-0 > 100 µM | KM12 > 100 µM | MOLT-4 > 100 µM | ACHN > 100 µM | NCI-H460 > 100 µM | Hs-578T > 100 µM | SF-268 > 100 µM | SN12C > 100 µM | DU-145 > 100 µM | SK-MEL-2 > 100 µM | MDA-N > 100 µM | SW-620 > 100 µM | SF-539 > 100 µM

Cc1csc(CP(=O)(OC(C)C)OC(C)C)n1
inactive: HOP-92 > 100 µM | MCF7 > 100 µM | UO-31 74 µM | OVCAR-5 > 100 µM | HT-29 > 100 µM | MDA-MB-231 > 100 µM | 786-0 > 100 µM | MOLT-4 > 100 µM | ACHN > 100 µM | NCI-H460 > 100 µM | Hs-578T > 100 µM | SF-268 > 100 µM | SN12C > 100 µM | DU-145 > 100 µM | SK-MEL-2 > 100 µM | MDA-N > 100 µM | SW-620 > 100 µM | SF-539 > 100 µM | NCI-H23 > 100 µM

CC(=O)[C@@H](C)C(=O)N1C(=O)OC[C@@]12[C@@H]1CC[C@@H](C1)C2(C)C
inactive: HOP-92 > 100 µM | MCF7 > 100 µM | UO-31 > 100 µM | OVCAR-5 > 100 µM | HT-29 > 100 µM | MDA-MB-231 > 100 µM | 786-0 > 100 µM | KM12 > 100 µM | ACHN > 100 µM | NCI-H460 > 100 µM | Hs-578T > 100 µM | SN12C > 100 µM | DU-145 > 100 µM | SK-MEL-2 > 100 µM | MDA-N > 100 µM | SW-620 > 100 µM | SF-539 > 100 µM | NCI-H23 > 100 µM

CC1=C(CO)C(=O)O[C@@H]([C@@H](CO)[C@H]2CCC3C4C[C@@H](O)[C@@]5(O)CC=CC(=O)[C@]5(C)C4CC[C@@]32C)C1 (stereo partly specified)
inactive: HOP-92 71 µM | MCF7 50 µM | UO-31 24.4 µM | OVCAR-5 83.9 µM | HT-29 44.2 µM | MDA-MB-231 59.2 µM | 786-0 28.6 µM | KM12 43.3 µM | MOLT-4 36.3 µM | ACHN 36.4 µM | Hs-578T 59.2 µM | SF-268 43.3 µM | SN12C 55.2 µM | DU-145 > 100 µM | SK-MEL-2 53.6 µM | MDA-N 71.9 µM | SW-620 29 µM | SF-539 53.8 µM | NCI-H23 67.9 µM

CO[C@@H]1C[C@H]2[C@@H]3CC[C@H]([C@@H](C)CO)[C@@]3(C)CC[C@@H]2[C@@]2(C)CC[C@H]3C[C@]312
inactive: HOP-92 18.9 µM | MCF7 16.2 µM | UO-31 39.8 µM | OVCAR-5 > 100 µM | HT-29 18.5 µM | MDA-MB-231 28.3 µM | 786-0 42.1 µM | KM12 19 µM | MOLT-4 31.1 µM | ACHN 26.5 µM | NCI-H460 20.9 µM | Hs-578T 27.2 µM | SF-268 67 µM | SN12C 33 µM | DU-145 85.5 µM | MDA-N 34.7 µM | SW-620 31.9 µM | SF-539 43.1 µM | NCI-H23 40.7 µM

Cc1cc(=O)oc2c(CN3CCCCC3)c(O)ccc12
inactive: HOP-92 > 100 µM | MCF7 > 100 µM | OVCAR-5 > 100 µM | HT-29 > 100 µM | MDA-MB-231 > 100 µM | 786-0 > 100 µM | MOLT-4 > 100 µM | ACHN > 100 µM | NCI-H460 > 100 µM | Hs-578T > 100 µM | SF-268 > 100 µM | SN12C > 100 µM | DU-145 > 100 µM | SK-MEL-2 > 100 µM | MDA-N > 100 µM | SW-620 > 100 µM | SF-539 > 100 µM | NCI-H23 > 100 µM

COc1cc2c(cc1C[N+](C)(C)CSc1ccccc1)-c1ccccc1CC2
inactive: HOP-92 8.51 µM | MCF7 5 µM | UO-31 15.2 µM | OVCAR-5 12 µM | HT-29 2.25 µM | MDA-MB-231 2.86 µM | 786-0 6.07 µM | KM12 2.2 µM | MOLT-4 2.33 µM | ACHN 15.3 µM | NCI-H460 3.29 µM | Hs-578T 4.99 µM | SF-268 5.32 µM | SN12C 6.21 µM | DU-145 8.61 µM | SK-MEL-2 2 µM | MDA-N 1.77 µM | SW-620 10.4 µM | SF-539 7.96 µM | NCI-H23 3.76 µM
